In test [1] the test system is Tic-FX cells. Put plainly: Real-time PCR of pluripotency markers in cells proliferated with inhibitors. The class given is cell-based, human. Particulars: 40 ng/mL FGF2, versus control Tic-FX. From the text:
Cells cultured in the basal medium were used as the control (indicated by Tic-FX in FIG. 7A and FIG. 7B).
(In qPCR the cycle at which signal appears reflects the starting amount.)

The test system of test [2] is Tic-FX cells. Briefly: Culturing of iPS cells in the presence of low molecular weight compounds (cell count). It counts as cell-based, human. To be noted: 40 ng/mL FGF2, five days. The protocol: Media were produced by adding 1 μM of Y-27632, 20 ng/mL of LIF and 40 ng/mL of FGF2 to the basal medium, and media were produced by adding the following inhibitors to the media at concentrations of 1 μM (PD0325901), 0.3 μM (CHIR99021), 0.5 μM (SB590885), 1 μM (WH-4-023), 10 μM (SP600125), 10 μM (SB203580), 5 μM (Go6983), 5 μM (GF109203X), 2 μM (Porsomorphin) or 400 ng/mL (Noggin) each. The Tic-FX cells were proliferated in suspension culture in ultra-low attachment 6-well plates (manufactured by Coming Incorporated) containing the media in the presence of 10% CO2 at 37° C. The cells were cultured for five days, and the cells were counted. In FIG. 6, “−” indicates the results using the medium to which no inhibitor was added.

Test [3] relates to Tic-FX cells. Put plainly: Influence on proliferation of iPS cells in the presence of ROCK inhibitor (suspension culture). It counts as cell-based, human. Particulars: Y-27632 at 1 μM, 3 μM or 10 μM in hESF-FX medium. On the procedure: In the following Examples, a medium obtained by mixing the following components in the amounts shown in Table 1 which had been sterilized with a […] into mESF Basal Medium (manufactured by Wako Pure Chemical Industries, Ltd., 136-17805) was used as hESF-FX medium. As the iPS cells, Tic-FX cells [a cell line obtained by conditioning iPS cells, line Tic (JCRB1331) to a feeder-free xeno-free culture (FX)] were used. A ROCK inhibitor (Y-27632) was dissolved in the hESF-FX medium at 1 μM, 3 μM or 10μM. The media each in an amount of 3 mL were put into an ultra-low attachment 6-well plate (manufactured by Corning Incorporated), and the Tic-FX cells were cultured in the presence of 10% CO2 at 37° C. (suspension culture). The plate was observed after one day, three days and five days of cultivation. […] The numbers of the cells per well and the viability of the cells were measured after five days of cultivation.

For test [4], the system named is Tic-FX cells. Put plainly: Real-time PCR of undifferentiation, naive type-specific and differentiation marker genes in cells of Example 1. Particulars: five days, relative to GAPDH; for expression level of NCAM / expression level of naive type-specific STELLA gene: versus control; for expression level of NANOG / expression level of OCT3/4: versus control Tic-FX. It counts as cell-based, human. On the procedure: The expression of marker genes was examined by real-time PCR. Real-time PCR was conducted using a real-time PCR system (7300 manufactured by Applied Biosystems) by the following reaction procedures using the following primers. 95° C. 30 seconds→[(95° C. 5 seconds→60° C. 31 seconds)×40 cycles]→Melting Cycle Using the cells cultured in Example 1, the expression levels of NANOG and OCT3/4, which are undifferentiation marker genes, […], which is a naive type-specific marker gene, and NCAM, which is a neuronal differentiation-specific marker gene, in the cells after five days of cultivation were examined by the real-time PCR. In FIG. 3A to FIG. 3D, the vertical axes each indicate the ratio of the expression level of the target gene of the sample to that of GAPDH (glyceraldehyde-3-phosphate dehydrogenase), which was used as the internal standard. Specifically, the values in the graphs each mean the relative value (unit is fold) of the DNA amount before the amplification determined from the difference between the Cp value of GAPDH and the Cp value of the target gene. Here, the internal standard is a gene whose expression level is always constant independently of the state of the cells. The Cp value is the number of cycles which are necessary to amplify DNA to the amount that can be detected with a measurement device when the DNA is amplified by PCR reaction (theoretically, the DNA amount doubles in one cycle).

In the next test the test system is human iPS cells. To be noted: added to the medium; cells dispersed into single cells or clusters of several to several dozen cells; cited from earlier work.
[5] abbreviates: 0.3 μM added to medium with 1 μM Y-27632, 20 ng/mL LIF.
[6] abbreviates: 400 ng/mL added to medium with 1 μM Y-27632, 20 ng/mL LIF.

As to `Cc1c[nH]c(-c2cnc(NCCNc3ccc(C#N)cn3)nc2-c2ccc(Cl)cc2Cl)n1` [CHIR99021, 6-{2-[4-(2,4-dichloro-phenyl)-5-(4-methyl-1H-imidazol-2-yl)-pyrimidin-2-ylamino]-ethylamino}-nicotinonitrile], in the test on Tic-FX cells [1] (setting [5]), the “expression level of NANOG” value is listed as “increased” and the “expression level of OCT3/4” value is listed as “increased”. Further, in the test with Tic-FX cells [2] (setting [5]), the “growth rate of the cells” value was “high”.
Consider `C[C@@H](N)[C@H]1CC[C@H](C(=O)Nc2ccncc2)CC1.Cl.Cl` [Y-27632, (+)-(R)-trans-4-(1-aminoethyl)-N-(4-pyridyl)cyclohexanecarboxamide dihydrochloride], for which, in the test with Tic-FX cells [3] (after five days of cultivation), the “number of the cells per well” value is on record as “increased as the concentration of the ROCK inhibitor was higher” and the “viability of the cells” value is “increased as the concentration of the ROCK inhibitor was higher”. Moreover, the “number of the cells (micrographs, FIG. 1A and FIG. 1B)” value in the test on Tic-FX cells [3] (observed after one, three and five days) was “increased as the concentration of the ROCK inhibitor was higher”. For the same molecule, in the test on Tic-FX cells [4] (1 μM), the “expression level of NCAM” value is “almost the same as that of the control”, the “expression level of naive type-specific STELLA gene” value is “higher than that of the control”, the “expression level of NANOG” value was “higher than those of the control” and the “expression level of OCT3/4” value is listed as “higher than those of the control”. For the same molecule, in the test with Tic-FX cells [4] (3 μM), the “expression level of NCAM” value was “higher than that of the control”, the “expression level of naive type-specific STELLA gene” value is “higher than that of the control”, the “expression level of NANOG” value is listed as “higher than those of the control” and the “expression level of OCT3/4” value is reported as “higher than those of the control”. In the test with Tic-FX cells [4] (10 μM), the “expression level of NCAM” value is given as “higher than that of the control”, the “expression level of naive type-specific STELLA gene” value is listed as “slightly higher than that of the control”, the “expression level of NANOG” value is reported as “lower than those of the control” and the “expression level of OCT3/4” value is “lower than those of the control”. Moreover, in the test with human iPS cells, the “apoptosis of human iPS cells” value is recorded as “suppresses the apoptosis” and the intercellular adhesion result is on record as “promotes the intercellular adhesion”.

B1: Noggin: Noggin, Recombinant Human, manufactured by R&D Systems; endogenous protein that inhibits BMP (protein, UniProt Q13253 28-232, looked up)
Noggin: QHYLHIRPAPSDNLPLVDLIEHPDPIFDPKEKDLNETLLRSLLGGHYDPGFMATSPPEDRPGGGGGAAGGAEDLAELDQLLRQRPSGAMPSEIKGLEFSEGLAQGKKQRLSKKLRRKLQMWLWSQTFCPVLYAWNDLGSRFWPRYVKVGSCFSKRSCSVPEGMVCKPSKSVHLTVLRWRCQRRGGQRCGWIPIQYPIISECKCSC
With B1, in the test on Tic-FX cells [1] (setting [6]), the “expression level of NANOG” value is recorded as “increased” and the “expression level of OCT3/4” value is “increased”. The “growth rate of the cells” value in the test on Tic-FX cells [2] (setting [6]) is “high”.

Source of the values: patent US20190127707A1, “MEDIUM FOR CULTURING NAIVE PLURIPOTENT STEM CELLS AND METHOD FOR CULTURING PLURIPOTENT STEM CELLS” (KYOWA HAKKO BIO CO., LTD., priority 2016, published 2019).
